Measurements from article PMC4584933, “Establishing the pig as a large animal model for vaccine development against human cancer” (Frontiers in Genetics, 2015).

system: SLA-2*04:01; assay: Peptide-MHC class I complex stability, scintillation proximity assay (SPA); design: species or system pig; conditions: biotinylated recombinant SLA heavy chain, 125I-β2m, excess unlabeled β2m, read every 40 min, number only if t1/2 ≥ 0.5 h, '-' = not stably binding
Protocol: (§1) The stability of the selected 198 peptides in complex with relevant SLA class I molecules and β2m was determined using a scintillation proximity assay (SPA), as previously described (Harndahl et al., [2011]). Briefly, biotinylated recombinant MHC class I heavy chains were attached to a streptavidin-coated scintillation microplate together with iodinated (^125I) β2m and candidate peptide resulting in a scintillation signal, which was consecutively measured every 40 min by a scintillation plate counter. The duration of this signal is directly correlated to the stability of the peptide-MHC class I-β2m complex under dissociating conditions and in the presence of excess unlabeled β2m (Harndahl et al., [2011]). Peptides with a half-life ≥ 0.5 h were selected as stable binders.

Substance	Binder (t1/2 ≥ 0.5 h): half-life of peptide-SLA-2*04:01 complex
AGFLQEMRTY [IDO1, porcine IDO-derived 9-11mer peptide]	0.6 h
DNSWKIFEEY [IDO11, porcine IDO-derived 9-11mer peptide]	- (t1/2 (hours) is listed for each of the stably binding peptides (t1/2 ≥ 0.5 h))
DSLENIPEKW [RhoC9, porcine RhoC-derived 9-11mer peptide]	- (t1/2 (hours) is listed for each of the stably binding peptides (t1/2 ≥ 0.5 h))
DWWSPMDNSW [IDO13, porcine IDO-derived 9-11mer peptide]	- (t1/2 (hours) is listed for each of the stably binding peptides (t1/2 ≥ 0.5 h))
EKLGLPPILVY [IDO17, porcine IDO-derived 9-11mer peptide]	- (t1/2 (hours) is listed for each of the stably binding peptides (t1/2 ≥ 0.5 h))
ENYIADIEVD [RhoC19, porcine RhoC-derived 9-11mer peptide]	- (t1/2 (hours) is listed for each of the stably binding peptides (t1/2 ≥ 0.5 h))
FALPNPLEEL [IDO22, porcine IDO-derived 9-11mer peptide]	0.5 h
FNAIQCEDL [IDO26, porcine IDO-derived 9-11mer peptide]	0.6 h
FNVLRIYLSGW [IDO29, porcine IDO-derived 9-11mer peptide]	33.6 h
FSKDQFPEVY [RhoC26, porcine RhoC-derived 9-11mer peptide]	- (t1/2 (hours) is listed for each of the stably binding peptides (t1/2 ≥ 0.5 h))
LDWWSPMDNSW [IDO64, porcine IDO-derived 9-11mer peptide]	- (t1/2 (hours) is listed for each of the stably binding peptides (t1/2 ≥ 0.5 h))
LGYITMAYVW [IDO66, porcine IDO-derived 9-11mer peptide]	4.9 h
LSEGLLYEGVW [IDO71, porcine IDO-derived 9-11mer peptide]	4.4 h
LVYADCVLANW [IDO74, porcine IDO-derived 9-11mer peptide]	- (t1/2 (hours) is listed for each of the stably binding peptides (t1/2 ≥ 0.5 h))
MDNSWKIFEEY [IDO76, porcine IDO-derived 9-11mer peptide]	1.9 h
NSWKIFEEYH [IDO90, porcine IDO-derived 9-11mer peptide]	- (t1/2 (hours) is listed for each of the stably binding peptides (t1/2 ≥ 0.5 h))
NYHLQIVTKY [IDO93, porcine IDO-derived 9-11mer peptide]	- (t1/2 (hours) is listed for each of the stably binding peptides (t1/2 ≥ 0.5 h))
SSLHKALEVF [IDO121, porcine IDO-derived 9-11mer peptide]	- (t1/2 (hours) is listed for each of the stably binding peptides (t1/2 ≥ 0.5 h))
TYMPPAHRNF [IDO124, porcine IDO-derived 9-11mer peptide]	4.7 h
VDGKQVELALW [RhoC52, porcine RhoC-derived 9-11mer peptide]	0.5 h
VFSKDQFPEVY [RhoC53, porcine RhoC-derived 9-11mer peptide]	- (t1/2 (hours) is listed for each of the stably binding peptides (t1/2 ≥ 0.5 h))
WDTAGQEDY [RhoC55, porcine RhoC-derived 9-11mer peptide]	- (t1/2 (hours) is listed for each of the stably binding peptides (t1/2 ≥ 0.5 h))
WWSPMDNSW [IDO132, porcine IDO-derived 9-11mer peptide]	- (t1/2 (hours) is listed for each of the stably binding peptides (t1/2 ≥ 0.5 h))

system: SLA-3*04:01; assay: as above; design: species or system pig; conditions: biotinylated recombinant SLA heavy chain, 125I-β2m, excess unlabeled β2m, read every 40 min, number only if t1/2 ≥ 0.5 h, '-' = not stably binding
Protocol: as §1

Substance	Binder (t1/2 ≥ 0.5 h): half-life of peptide-SLA-3*04:01 complex
ANRISAFGYL [RhoC3, porcine RhoC-derived 9-11mer peptide]	- (t1/2 (hours) is listed for each of the stably binding peptides (t1/2 ≥ 0.5 h))
ANRISAFGYLE [RhoC4, porcine RhoC-derived 9-11mer peptide]	- (t1/2 (hours) is listed for each of the stably binding peptides (t1/2 ≥ 0.5 h))
ANWKKKDPS [IDO6, porcine IDO-derived 9-11mer peptide]	- (t1/2 (hours) is listed for each of the stably binding peptides (t1/2 ≥ 0.5 h))
FNVLRIYLS [IDO27, porcine IDO-derived 9-11mer peptide]	- (t1/2 (hours) is listed for each of the stably binding peptides (t1/2 ≥ 0.5 h))
FNVLRIYLSG [IDO28, porcine IDO-derived 9-11mer peptide]	- (t1/2 (hours) is listed for each of the stably binding peptides (t1/2 ≥ 0.5 h))
HKMQRLAHLVL [IDO37, porcine IDO-derived 9-11mer peptide]	- (t1/2 (hours) is listed for each of the stably binding peptides (t1/2 ≥ 0.5 h))
KALLDITSSL [IDO46, porcine IDO-derived 9-11mer peptide]	- (t1/2 (hours) is listed for each of the stably binding peptides (t1/2 ≥ 0.5 h))
KDPSGPMTY [IDO47, porcine IDO-derived 9-11mer peptide]	- (t1/2 (hours) is listed for each of the stably binding peptides (t1/2 ≥ 0.5 h))
KEGVREVFEM [RhoC27, porcine RhoC-derived 9-11mer peptide]	- (t1/2 (hours) is listed for each of the stably binding peptides (t1/2 ≥ 0.5 h))
KGFFLVSLLV [IDO50, porcine IDO-derived 9-11mer peptide]	- (t1/2 (hours) is listed for each of the stably binding peptides (t1/2 ≥ 0.5 h))
KHFCPNVPI [RhoC28, porcine RhoC-derived 9-11mer peptide]	- (t1/2 (hours) is listed for each of the stably binding peptides (t1/2 ≥ 0.5 h))
KHFCPNVPII [RhoC29, porcine RhoC-derived 9-11mer peptide]	- (t1/2 (hours) is listed for each of the stably binding peptides (t1/2 ≥ 0.5 h))
KHFCPNVPIIL [RhoC30, porcine RhoC-derived 9-11mer peptide]	- (t1/2 (hours) is listed for each of the stably binding peptides (t1/2 ≥ 0.5 h))
KLFFNVLRI [IDO52, porcine IDO-derived 9-11mer peptide]	- (t1/2 (hours) is listed for each of the stably binding peptides (t1/2 ≥ 0.5 h))
KLFFNVLRIYL [IDO54, porcine IDO-derived 9-11mer peptide]	- (t1/2 (hours) is listed for each of the stably binding peptides (t1/2 ≥ 0.5 h))
KMQRLAHLVL [IDO57, porcine IDO-derived 9-11mer peptide]	- (t1/2 (hours) is listed for each of the stably binding peptides (t1/2 ≥ 0.5 h))
KNKRRRGCPIL [RhoC32, porcine RhoC-derived 9-11mer peptide]	- (t1/2 (hours) is listed for each of the stably binding peptides (t1/2 ≥ 0.5 h))
KNMDILFSFPG [IDO59, porcine IDO-derived 9-11mer peptide]	- (t1/2 (hours) is listed for each of the stably binding peptides (t1/2 ≥ 0.5 h))
KRRRGCPIL [RhoC33, porcine RhoC-derived 9-11mer peptide]	- (t1/2 (hours) is listed for each of the stably binding peptides (t1/2 ≥ 0.5 h))
KTKEGVREVF [RhoC34, porcine RhoC-derived 9-11mer peptide]	- (t1/2 (hours) is listed for each of the stably binding peptides (t1/2 ≥ 0.5 h))
KTVRGTTVRSL [IDO60, porcine IDO-derived 9-11mer peptide]	- (t1/2 (hours) is listed for each of the stably binding peptides (t1/2 ≥ 0.5 h))

system: PBMCs; assay: In vitro peptide stimulation of porcine PBMCs, IFN-γ release assay (ELISA); type: cell-based, pig; design: key to T cell response: “x” indicates that a response was found to this given peptide at least once; conditions: not given

Substance	IFN-γ in positive control cultures
Staphylococcal Enterotoxin B [SEB, reference compound]	> 70 pg/mL

same assay, conditions: PBMCs of immunized pigs, 2 × 10^5/well, 5 μg/ml peptide, 67.5–70.0 h, IFN-γ ELISA; response = 2-fold increase vs day -2 and at least 25 pg/ml IFN-γ, found at least once; SLA restriction not included

Substance	T cell response
AGFLQEMRTY [IDO1, porcine IDO-derived 9-11mer peptide]	x
FALPNPLEEL [IDO22, porcine IDO-derived 9-11mer peptide]	x
FNAIQCEDL [IDO26, porcine IDO-derived 9-11mer peptide]	x
FNVLRIYLSGW [IDO29, porcine IDO-derived 9-11mer peptide]	x
LGYITMAYVW [IDO66, porcine IDO-derived 9-11mer peptide]	x
LSEGLLYEGVW [IDO71, porcine IDO-derived 9-11mer peptide]	x
MDNSWKIFEEY [IDO76, porcine IDO-derived 9-11mer peptide]	x
TYMPPAHRNF [IDO124, porcine IDO-derived 9-11mer peptide]	x
VDGKQVELALW [RhoC52, porcine RhoC-derived 9-11mer peptide]	x
